Data as given in US9145415B2, “Nitrogen-containing heterocyclic compound or salt thereof” (FUJIFILM Corporation, priority 2012, dated 2015).
pIC50: −log10 of the molar value. Read-outs that look alike come from different tables or passages of the source.

What was measured:
[1] = target: T1, human FLT3 protein (FLT3 (WT)) (Homo sapiens, UniProt P36888); assay: FLT3 inhibition test (FLT3 enzyme inhibition, time-resolved fluorescence of substrate peptide phosphorylation); assay type: biochemical; settings: read-out: FLT3 (WT) enzyme inhibition activity
T1 construct: human FLT3 protein (intracellular region, 564 to 993 aa); GST; purchased Carna Biosciences; host or cells: baculovirus expression system
T1 sequence (P36888 564-993): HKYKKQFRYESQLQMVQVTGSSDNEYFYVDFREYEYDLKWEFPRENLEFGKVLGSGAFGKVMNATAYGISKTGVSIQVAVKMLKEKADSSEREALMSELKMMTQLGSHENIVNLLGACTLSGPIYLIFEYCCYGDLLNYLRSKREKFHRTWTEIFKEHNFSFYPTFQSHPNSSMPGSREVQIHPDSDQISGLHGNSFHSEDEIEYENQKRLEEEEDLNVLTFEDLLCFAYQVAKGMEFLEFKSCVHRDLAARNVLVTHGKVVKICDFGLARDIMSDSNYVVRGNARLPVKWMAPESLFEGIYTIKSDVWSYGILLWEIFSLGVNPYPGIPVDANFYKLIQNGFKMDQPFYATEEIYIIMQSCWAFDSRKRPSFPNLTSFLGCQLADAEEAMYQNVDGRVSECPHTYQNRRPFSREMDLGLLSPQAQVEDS
Method in brief: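 Substrate peptide phosphorylation detected by time-resolved fluorescence after a 30 min kinase reaction at 25° C with 50 μM ATP (final). Beforehand, compound and FLT3 (WT, 1.2 μg) stood 15 min at 25° C in HEPES buffer pH 7.5 containing MgCl2, NaCl, BSA and DTT.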

[2] = system: MV4-11 cells; assay: Leukemia cell proliferation inhibition test (ATPlite), MV4-11; assay type: cell-based; settings: Homo sapiens, read-out: MV4-11 cell proliferation inhibition effect
Method in brief: (§1)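 Proliferation inhibition is quantified from total cellular ATP, measured by luciferase luminescence, after cells grow with compound for 72 hours. The GI50 is the concentration giving half the signal of the 0.1% DMSO control, fitted to a sigmoid curve from duplicate points.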

[3] = system: Molm-13 cells; assay: Leukemia cell proliferation inhibition test (ATPlite), Molm-13; assay type: cell-based; settings: Homo sapiens, read-out: MOLM13 cell proliferation inhibition effect
Method in brief: as §1

[4] = GST-fused human FLT3 (564 to 993 aa), ATP 50 μM
[5] = MV4-11, 72 h, MV4-11, 72 hours culture, ATPlite, GI50 per method
[6] = MOLM-13, 72 h, Molm-13, 72 hours culture, ATPlite, GI50 per method

pIC50 [1, 4]	pIC50 [2, 5]	pIC50 [3, 6]	pIC50 ([1]; FLT3 (WT))	pIC50 ([2]; MV4-11, MV4-11 cell)	pIC50 ([3]; MOLM-13, MOLM13 cell)	Structure (SMILES)	pIC50 ([2]; MV4-11, 72 hours culture, ATPlite, GI50 per method)	pIC50 ([3]; Molm-13, 72 hours culture, ATPlite, GI50 per method)
> 8.00	> 8.00	> 8.00				CCCNc1nc(Nc2ccnc(OC)c2)ncc1C#CCCCNC(=O)[C@@H]1C[C@H](F)CN1C(=O)/C=C/CN(C)C [Compound 9-37, (2S,4S)-1-((E)-4-(Dimethylamino)-2-butenoyl)-4-fluoro-N-(5-(2-((2-methoxypyridin-4-yl)amino)-4-(propylamino)pyrimidin-5-yl)-4-pentyn-1-yl)pyrrolidine-2-carboxamide]		
			> 8.00	> 8.00	> 8.00	CCCNc1ncc(C#CCCCNC(=O)[C@H](C)N(C)C(=O)/C=C/CN(C)C)c(Nc2ccc(OC)cc2)n1 [Compound 21-38]		
> 8.00	> 8.00	> 8.00				CCCNc1nc(Nc2cccc(C#N)c2)ncc1C#C[C@@H]1CCC[C@H](NC(=O)[C@H](C)N(C)C(=O)/C=C/CN(C)C)C1 [Compound 13-7]		
			> 8.00	> 8.00	> 8.00	COCCNc1nc(Nc2cccc(F)c2)ncc1C#C[C@@H]1CCC[C@H](NC(=O)[C@H](C)N(C)C(=O)/C=C/CN(C)C)C1 [Compound 22-36]		
> 8.00	> 8.00	> 8.00				C[C@@H](C(=O)NCCCC#Cc1cnc(Nc2ccnc(F)c2)nc1NCCCF)N(C)C(=O)/C=C/CN(C)C [Compound 9-17]		
> 8.00	> 8.00	7.00 to 8.00				COCCCNc1nc(Nc2ccc(F)nc2)ncc1C#CCCCNC(=O)CN(C)C(=O)/C=C/CN(C)C [Compound 10-31]		
> 8.00	> 8.00	> 8.00				CCCN(CCC)c1nc(Nc2ccc(F)cc2)ncc1C#CCCCNC(=O)CN(C)C(=O)/C=C/CN(C)C [Compound 10-22]		
			> 8.00	> 8.00	> 8.00	CCCOc1nc(Nc2cccc(F)c2)ncc1C#C[C@@H]1CCC[C@H](NC(=O)[C@H](C)N(C)C(=O)/C=C/CN(C)C)C1 [Compound 21-52]		
> 8.00	> 8.00	> 8.00				CCCNc1nc(Nc2cc(C)ns2)ncc1C#CCCCNC(=O)[C@H](C)N(C)C(=O)/C=C/CN(C)C [Compound 9-30, (S,E)-4-(Dimethylamino)-N-methyl-N-(1-((5-(2-((3-methylisothiazol-5-yl)amino)-4-(propylamino)pyrimidin-5-yl)-4-pentyn-1-yl)amino)-1-oxopropan-2-yl)-2-butenamide]		
> 8.00	> 8.00	> 8.00				CCCNc1nc(Nc2ccnc(F)c2)ncc1C#CC(C)(C)CCNC(=O)[C@H](C)N(C)C(=O)/C=C/CN(C)C [Compound 9-19]		
> 8.00	> 8.00	> 8.00				CCCN(C)c1nc(Nc2ccnc(F)c2)ncc1C#CCCCNC(=O)[C@H](C)N(C)C(=O)/C=C/CN(C)C [Compound 9-10]		
> 8.00	> 8.00	> 8.00				CNc1nc(Nc2ccc(C#N)cc2)ncc1C#CCCCNC(=O)[C@H](C)N(C)C(=O)/C=C/CN(C)C [Compound 10-45]		
> 8.00	7.00 to 8.00	6.00 to 7.00				CCCNc1nc(Nc2ccc(C(N)=O)cc2)ncc1-c1cccc(CCNC(=O)CNC(=O)/C=C/CN(C)C)c1 [Compound 16-1, (E)-4-((5-(3-(2-(2-(4-(dimethylamino)-2-butenamido)actamido)ethyl)phenyl)-4-(propylamino)pyrimidin-2-yl)amino)benzamide]		
> 8.00	> 8.00	> 8.00				CNc1nc(Nc2ccc3cn[nH]c3c2)ncc1C#CCCCNC(=O)[C@H](C)N(C)C(=O)/C=C/CN(C)C [Compound 10-63]		
> 8.00	> 8.00	> 8.00				CC[C@@H](C(=O)NCCCC#Cc1cnc(Nc2ccc(F)nc2)nc1Nc1ccc(OC)cc1)N(C)C(=O)/C=C/CN(C)C [Compound 10-37]		
			7.00 to 8.00	6.00 to 7.00	7.00 to 8.00	CCCNc1nc(Nc2ccc3nc(C)ccc3c2)ncc1C#CCCCNC(=O)[C@H](C)N(C)C(=O)/C=C/CN(C)C [Compound 22-5]		
			> 8.00	> 8.00	> 8.00	CCCNc1nc(Nc2cccc(-n3ccnn3)c2)ncc1C#CCCCNC(=O)[C@H](C)N(C)C(=O)/C=C/CN(C)C [Compound 22-20]		
> 8.00	> 8.00	> 8.00				CN(C)C/C=C/C(=O)N(C)CC(=O)NCCCC#Cc1cnc(Nc2ccc(F)cc2)nc1NCC1CCOCC1 [Compound 10-18]		
> 8.00	> 8.00	> 8.00				CN(C)C/C=C/C(=O)N1CCC[C@H]1C(=O)NCCCC#Cc1cnc(Nc2ccc3[nH]ncc3c2)nc1NC1CC1 [Compound 10-74]		
> 8.00	7.00 to 8.00	6.00 to 7.00				CCCNc1nc(Nc2ccccc2F)ncc1C#CCCCNC(=O)[C@H](C)N(C)C(=O)/C=C/CN(C)C [Compound 12-10]		
> 8.00	> 8.00	> 8.00				CCNc1nc(Nc2ccc3cnn(C)c3c2)ncc1C#CCCCNC(=O)[C@H](C)N(C)C(=O)/C=C/CN(C)C [Compound 10-57]		

More lines, now with the values behind:

Structure (SMILES)	pIC50 [1, 4]	pIC50 [2, 5]	pIC50 [3, 6]	pIC50 ([1]; FLT3 (WT))	pIC50 ([2]; MV4-11, MV4-11 cell)	pIC50 ([3]; MOLM-13, MOLM13 cell)	pIC50 ([2]; MV4-11, 72 hours culture, ATPlite, GI50 per method)	pIC50 ([3]; Molm-13, 72 hours culture, ATPlite, GI50 per method)
CCCNc1nc(Nc2ccc3cnccc3c2)ncc1C(=O)Nc1cccc(NC(=O)[C@H](C)N(C)C(=O)/C=C/CN(C)C)c1 [Compound 6-9, (S,E)-N-(3-(2-(4-(Dimethylamino)-N-methyl-2-butenamido)propanamido)phenyl)-2-(isoquinolin-6-ylamino)-4-(propylamino)pyrimidine-5-carboxamide]	> 8.00	> 8.00	> 8.00					
C=C(C)C(=O)N(C)[C@@H](C)C(=O)Nc1cccc(NC(=O)c2cnc(Nc3ccc(C(N)=O)cc3)nc2NCCC)c1 [Compound 3-10]	> 8.00	6.00 to 7.00	6.00 to 7.00					
C=CC(=O)N(C)[C@@H](C)C(=O)NCCCNC(=O)c1cnc(Nc2ccc(C(N)=O)cc2)nc1NCCC [Compound 5-3]	> 8.00	7.00 to 8.00	7.00 to 8.00					
C[C@@H](C(=O)NCCCC#Cc1cnc(Nc2cccc(F)c2)nc1NCCCF)N(C)C(=O)/C=C/CN(C)C [Compound 7-31]	> 8.00	> 8.00	> 8.00					
CCCNc1nc(Nc2cccc(F)c2)ncc1C#CCCCNC(=O)[C@H](CCC)N(C)C(=O)/C=C/CN(C)C [Compound 7-18]	> 8.00	7.00 to 8.00	7.00 to 8.00					
CCCNc1nc(Nc2cccc(F)c2)ncc1C#CCCCNC(=O)[C@@H]1C[C@H](F)CN1C(=O)/C=C/CN(C)C [Compound 7-49]	> 8.00	> 8.00	> 8.00					
CCCNc1nc(Nc2ccc(C#N)cc2)ncc1C#CCCCNC(=O)[C@@H]1C[C@@H](OC)CN1C(=O)/C=C/CN(C)C [Compound 7-60]	> 8.00	> 8.00	> 8.00					
C=CC(=O)NCC(=O)N1CCC(NC(=O)c2cnc(NCCc3ccncc3)nc2NCCC)C1 (stereo not drawn) [Compound 6-17]	7.00 to 8.00	6.00 to 7.00	6.00 to 7.00					
CCCNc1nc(Nc2cccc(F)c2)ncc1C#Cc1ccccc1CNC(=O)[C@H](C)N(C)C(=O)/C=C/CN(C)C [Compound 7-25]	> 8.00	> 8.00	7.00 to 8.00					
CCCNc1nc(Nc2ccc(C(N)=O)cc2)ncc1C(=O)Nc1cccc(NC(=O)[C@H](C)N(C)C(=O)/C=C/CNCC(F)(F)F)c1 [Compound 4-13]	> 8.00	7.00 to 8.00	7.00 to 8.00					
CCCNc1nc(Nc2cccc(F)c2)ncc1C#CCCCNC(=O)[C@H](C(C)CC)N(C)C(=O)/C=C/CN(C)C (stereo partly drawn) [Compound 7-12]	7.00 to 8.00	6.00 to 7.00	6.00 to 7.00					
CCCNc1nc(Nc2ccc(C(N)=O)cc2)ncc1C(=O)Nc1cccc(NC(=O)[C@H](C)N(C)C(=O)/C=C/CN(C)C)c1 [Compound 3-1, (S,E)-2-((4-carbamoylphenyl)amino)-N-(3-(2-(4-(dimethylamino)-N-methyl-2-butenamido)propanamido)phenyl)-4-(propylamino)pyrimidine-5-carboxamide]	> 8.00	> 8.00	> 8.00					
C=CC(=O)NCC(=O)Nc1cccc(NC(=O)c2cnc(NCCc3ccncc3)nc2NCCC)c1 [Compound 2-1, N-(3-(2-(acrylylamido)acetamido)phenyl)-4-(propylamino)-2-((2-(pyridin-4-yl)ethyl)amino)pyrimidine-5-carboxamide]	> 8.00						7.00 to 8.00	7.00 to 8.00
